For the experiment, the system named is L1210 leukemia ip in BDF1 mice, survival T/C. Nature of the experiment: NCI In Vivo Anticancer Drug Screen. Data for tumor model L1210 Leukemia (intraperitoneal) in B6D2F1 (BDF1) mice. To be noted: endpoint: mean survival time, higher = longer survival. The method in brief:
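Ratio derived from survival: compound-dosed mice over vehicle-dosed mice, all bearing a transplantable tumor.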

[1] abbreviates: dose: 100.0 mg/kg/injection, schedule: Q04DX003 (ip), vehicle: saline with Tween-80.
Setting [2] is: dose: 200.0 mg/kg/injection, schedule: Q04DX003 (ip), vehicle: saline with Tween-80.
Setting [3] is: dose: 400.0 mg/kg/injection, schedule: Q04DX003 (ip), vehicle: saline with Tween-80.
[4] abbreviates: dose: 100.0 mg/kg/injection, schedule: Q01DX001 (ip), vehicle: other.
Setting [5] is: dose: 100.0 mg/kg/injection, schedule: Q04DX002 (ip), vehicle: other.
The mark [6] stands for this setting: dose: 200.0 mg/kg/injection, schedule: Q01DX001 (ip), vehicle: other.
Where [7] appears, read: dose: 100.0 mg/kg/injection, schedule: Q01DX001 (ip), vehicle: saline.
Where [8] appears, read: dose: 200.0 mg/kg/injection, schedule: Q01DX001 (ip), vehicle: saline.
[9] abbreviates: dose: 400.0 mg/kg/injection, schedule: Q01DX001 (ip), vehicle: saline.

Each structure is given as a SMILES string. Values joined by “and” are separate entries in the source; they are usually repeats but may differ in a detail not shown here. Equal entries are not always repeated. Inconclusive results and toxic doses are left out. Square brackets hold non-standard residues; d marks the D form. Peptide text beside a SMILES is read from it. * marks the point of attachment. ξ: configuration not given here. ξE = NC(CCC(=O)O)C(=O)O; Cbz = O=C(OCc1ccccc1)*

On to `Cc1ccccc1Oc1ccccc1N`, for which the T/C (dose: 100.0 mg/kg/injection, schedule: Q01DX009 (sc), vehicle: olive oil, sesame oil, peanut oil) is 101 % of control; the T/C (dose: 100.0 mg/kg/injection, schedule: Q04DX003 (sc), vehicle: olive oil, sesame oil, peanut oil) was 110 % of control; the T/C (dose: 200.0 mg/kg/injection, schedule: Q01DX009 (sc), vehicle: olive oil, sesame oil, peanut oil) was 101 % of control; the T/C (dose: 200.0 mg/kg/injection, schedule: Q04DX003 (sc), vehicle: olive oil, sesame oil, peanut oil) is 94 % of control; the T/C (dose: 400.0 mg/kg/injection, schedule: Q01DX009 (sc), vehicle: olive oil, sesame oil, peanut oil) was 97 % of control; the T/C (dose: 400.0 mg/kg/injection, schedule: Q04DX003 (sc), vehicle: olive oil, sesame oil, peanut oil) is 116 % of control.

In the case of `COC(=O)c1c(Cl)c(Cl)c(C(=O)OC)c(Cl)c1Cl`, the T/C was 91 % of control (dose: 100.0 mg/kg/injection, schedule: Q01DX009 (ip), vehicle: saline with Tween-80); 90 % of control under setting [1]; 92 % of control (dose: 200.0 mg/kg/injection, schedule: Q01DX009 (ip), vehicle: saline with Tween-80); 90 % of control under setting [2]; 92 % of control (dose: 400.0 mg/kg/injection, schedule: Q01DX009 (ip), vehicle: saline with Tween-80); 95 % of control under setting [3].

On to `CCCNC(=O)Oc1ccc(SC)cc1`, for which the T/C was 96 % of control under setting [4]; 94 % of control and 99 % of control (dose: 100.0 mg/kg/injection, schedule: Q01DX009 (ip), vehicle: other); 93 % of control and 97 % of control under setting [5]; 100 % of control (dose: 100.0 mg/kg/injection, schedule: Q04DX002 (ip), vehicle: saline with Tween-80); 107 % of control under setting [1]; 98 % of control under setting [6]. For the same molecule, the T/C is 103 % of control (dose: 200.0 mg/kg/injection, schedule: Q01DX009 (ip), vehicle: other); 97 % of control and 103 % of control (dose: 200.0 mg/kg/injection, schedule: Q04DX002 (ip), vehicle: other); 113 % of control (dose: 200.0 mg/kg/injection, schedule: Q04DX002 (ip), vehicle: saline with Tween-80); 105 % of control under setting [2]; 89 % of control (dose: 400.0 mg/kg/injection, schedule: Q01DX009 (ip), vehicle: other); 108 % of control and 86 % of control (dose: 400.0 mg/kg/injection, schedule: Q04DX002 (ip), vehicle: other). The T/C reads like this: (dose: 400.0 mg/kg/injection, schedule: Q04DX002 (ip), vehicle: saline with Tween-80) 106 % of control; under setting [3], 100 % of control.

Turning to `Nc1cc(Cl)c([N+](=O)[O-])c(N)n1`, the T/C by setting is: (dose: 100.0 mg/kg/injection, schedule: Q01DX001 (ip), vehicle: Klucel (hydroxypropylcellulose) (HPC)) 101 % of control; (dose: 200.0 mg/kg/injection, schedule: Q01DX001 (ip), vehicle: Klucel (hydroxypropylcellulose) (HPC)) 106 % of control; (dose: 400.0 mg/kg/injection, schedule: Q01DX001 (ip), vehicle: Klucel (hydroxypropylcellulose) (HPC)) 108 % of control.

For `CC1=NN(c2ccccc2)C(=O)C1N=Nc1ccc(S(=O)(=O)Nc2cc(C)nc(C)n2)cc1` (stereo unspecified), the T/C runs as follows: (dose: 100.0 mg/kg/injection, schedule: Q01DX001 (ip), vehicle: carboxymethylcellulose (CMC)) 98 % of control; (dose: 200.0 mg/kg/injection, schedule: Q01DX001 (ip), vehicle: carboxymethylcellulose (CMC)) 98 % of control; (dose: 400.0 mg/kg/injection, schedule: Q01DX001 (ip), vehicle: carboxymethylcellulose (CMC)) 95 % of control.

As to `O=C(CCCC(=O)NNC(=S)Nc1cccc2ccccc12)NNC(=S)Nc1cccc2ccccc12`, the T/C is 98 % of control (dose: 50.0 mg/kg/injection, schedule: Q01DX001 (ip), vehicle: saline); 93 % of control under setting [7]; 96 % of control under setting [8]; 96 % of control under setting [9].

`O=CN(N=O)c1ccc(Br)cc1`: the T/C reads like this: (dose: 75.0 mg/kg/injection, schedule: Q01DX001 (ip), vehicle: other) 96 % of control; (dose: 150.0 mg/kg/injection, schedule: Q01DX001 (ip), vehicle: other) 101 % of control; (dose: 300.0 mg/kg/injection, schedule: Q01DX001 (ip), vehicle: other) 103 % of control.

Take `CCOC(=O)NC(NC(=O)OCC)C(Cl)CC` (stereo unspecified): the T/C reads like this: under setting [7], 107 % of control; under setting [8], 97 % of control; under setting [9], 101 % of control.

With `CCCCOC(=O)C(N)Cc1ccc(OC)c(N(CCCl)CCCl)c1` (stereo unspecified), the T/C reads like this: (dose: 0.6 mg/kg/injection, schedule: Q01DX009 (ip), vehicle: saline) 93 % of control; (dose: 0.75 mg/kg/injection, schedule: Q01DX001 (ip), vehicle: saline) 108 % of control; (dose: 1.3 mg/kg/injection, schedule: Q01DX009 (ip), vehicle: saline) 191 % of control; (dose: 1.5 mg/kg/injection, schedule: Q01DX001 (ip), vehicle: saline) 118 % of control; (dose: 2.0 mg/kg/injection, schedule: Q01DX009 (ip), vehicle: saline) 162 % of control; (dose: 2.6 mg/kg/injection, schedule: Q01DX001 (ip), vehicle: saline) 109 % of control. For the same molecule, the T/C by setting is: (dose: 3.0 mg/kg/injection, schedule: Q01DX009 (ip), vehicle: saline) 107 % of control; (dose: 6.0 mg/kg/injection, schedule: Q01DX001 (ip), vehicle: saline) 118 % of control; (dose: 12.0 mg/kg/injection, schedule: Q01DX001 (ip), vehicle: saline) 120 % of control.

Turning to `C=CCNC(=O)c1cncc(C(=O)O)c1`, the T/C reads like this: under setting [7], 96 % of control; under setting [8], 104 % of control; under setting [9], 98 % of control.

As for `Nc1cccc2ncc(C=O)n12`, the T/C was 102 % of control (dose: 37.5 mg/kg/injection, schedule: Q01DX001 (ip), vehicle: Klucel (hydroxypropylcellulose) (HPC)); 96 % of control (dose: 75.0 mg/kg/injection, schedule: Q01DX001 (ip), vehicle: Klucel (hydroxypropylcellulose) (HPC)); 95 % of control (dose: 150.0 mg/kg/injection, schedule: Q01DX001 (ip), vehicle: Klucel (hydroxypropylcellulose) (HPC)).

Regarding `NNC(=O)c1ccc(O)cc1`, the T/C by setting is: under setting [1], 95 % of control; under setting [2], 101 % of control; under setting [3], 97 % of control.

As to `O=C(O)CCC(NC(=O)CNC(=O)OCc1ccccc1)C(=O)O` (stereo not drawn) (Cbz-Gly-[ξE]-OH), the T/C (dose: 50.0 mg/kg/injection, schedule: Q01DX009 (ip), vehicle: Klucel (hydroxypropylcellulose) (HPC)) is 95 % of control; the T/C (dose: 50.0 mg/kg/injection, schedule: Q04DX003 (ip), vehicle: Klucel (hydroxypropylcellulose) (HPC)) was 92 % of control; the T/C (dose: 100.0 mg/kg/injection, schedule: Q01DX009 (ip), vehicle: Klucel (hydroxypropylcellulose) (HPC)) was 97 % of control; the T/C (dose: 100.0 mg/kg/injection, schedule: Q04DX003 (ip), vehicle: Klucel (hydroxypropylcellulose) (HPC)) was 96 % of control; the T/C (dose: 200.0 mg/kg/injection, schedule: Q01DX009 (ip), vehicle: Klucel (hydroxypropylcellulose) (HPC)) was 93 % of control; the T/C (dose: 200.0 mg/kg/injection, schedule: Q04DX003 (ip), vehicle: Klucel (hydroxypropylcellulose) (HPC)) is 93 % of control.

As to `COc1c(C)c(C)c(OC)c(CC(=O)O)c1C`, the T/C runs as follows: under setting [1], 93 % of control; under setting [2], 90 % of control; under setting [3], 93 % of control.

Turning to `O=C1C(=O)C2CCC1C2`, the T/C was 100 % of control (dose: 25.0 mg/kg/injection, schedule: Q04DX002 (ip), vehicle: other); 98 % of control (dose: 50.0 mg/kg/injection, schedule: Q04DX002 (ip), vehicle: other); 98 % of control under setting [5].

As to `CC[n+]1cccc(C#N)c1`, the T/C reads like this: (dose: 75.0 mg/kg/injection, schedule: Q01DX001 (ip), vehicle: saline) 98 % of control; (dose: 75.0 mg/kg/injection, schedule: Q04DX003 (ip), vehicle: saline) 93 % of control; (dose: 150.0 mg/kg/injection, schedule: Q01DX001 (ip), vehicle: saline) 103 % of control; (dose: 150.0 mg/kg/injection, schedule: Q04DX003 (ip), vehicle: saline) 98 % of control; (dose: 300.0 mg/kg/injection, schedule: Q01DX001 (ip), vehicle: saline) 101 % of control.

With `CC(=O)c1ccc2c(c1)sc1ccccc12`, the T/C was 96 % of control (dose: 50.0 mg/kg/injection, schedule: Q01DX001 (ip), vehicle: other); 96 % of control under setting [4]; 96 % of control under setting [6]; 87 % of control (dose: 400.0 mg/kg/injection, schedule: Q01DX001 (ip), vehicle: other).

Source of the values: PubChem BioAssay AID248 (DTP/NCI, 2004).
